Measured values published in ChEMBL document CHEMBL1806479, “Structure-activity study on a series of α-glutamic acid scaffold based compounds as new ADAMTS inhibitors” (Bioorg Med Chem Lett, 2011).

Legend:
[1] = target: T1, A disintegrin and metalloproteinase with thrombospondin motifs 4 (Homo sapiens) (UniProt O75173); assay: Inhibition of human recombinant ADAMTS4 at 10 uM by fluorimetric assay
T1 sequence (whole entry): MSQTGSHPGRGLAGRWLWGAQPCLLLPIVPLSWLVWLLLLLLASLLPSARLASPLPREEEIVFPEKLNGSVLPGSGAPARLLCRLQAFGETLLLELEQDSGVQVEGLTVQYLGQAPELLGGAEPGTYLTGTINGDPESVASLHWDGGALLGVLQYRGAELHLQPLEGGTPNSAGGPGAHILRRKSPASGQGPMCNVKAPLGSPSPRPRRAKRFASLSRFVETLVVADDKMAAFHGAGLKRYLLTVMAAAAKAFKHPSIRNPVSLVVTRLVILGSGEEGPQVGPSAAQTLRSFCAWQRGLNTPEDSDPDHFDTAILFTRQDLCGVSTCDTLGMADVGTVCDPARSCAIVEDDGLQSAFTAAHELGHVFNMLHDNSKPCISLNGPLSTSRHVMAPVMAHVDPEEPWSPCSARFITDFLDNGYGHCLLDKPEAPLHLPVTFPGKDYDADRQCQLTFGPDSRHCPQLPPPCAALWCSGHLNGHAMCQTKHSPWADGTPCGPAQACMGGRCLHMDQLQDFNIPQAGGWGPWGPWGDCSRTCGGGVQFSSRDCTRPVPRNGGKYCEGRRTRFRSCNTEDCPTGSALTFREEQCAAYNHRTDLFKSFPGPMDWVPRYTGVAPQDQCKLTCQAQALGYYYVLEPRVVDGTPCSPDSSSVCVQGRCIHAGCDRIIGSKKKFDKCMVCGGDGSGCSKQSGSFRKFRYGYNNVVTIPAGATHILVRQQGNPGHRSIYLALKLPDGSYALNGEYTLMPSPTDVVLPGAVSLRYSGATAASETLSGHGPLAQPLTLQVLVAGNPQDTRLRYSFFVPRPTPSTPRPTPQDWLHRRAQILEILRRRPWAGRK

[2] = target: T1, A disintegrin and metalloproteinase with thrombospondin motifs 4 (Homo sapiens); assay: Inhibition of human recombinant ADAMTS4 at 1 uM by fluorimetric assay
[3] = target: T2, A disintegrin and metalloproteinase with thrombospondin motifs 5 (Homo sapiens, UniProt Q9UNA0); assay: Inhibition of human recombinant ADAMTS5 by fluorimetric assay
T2 sequence (Q9UNA0 whole entry): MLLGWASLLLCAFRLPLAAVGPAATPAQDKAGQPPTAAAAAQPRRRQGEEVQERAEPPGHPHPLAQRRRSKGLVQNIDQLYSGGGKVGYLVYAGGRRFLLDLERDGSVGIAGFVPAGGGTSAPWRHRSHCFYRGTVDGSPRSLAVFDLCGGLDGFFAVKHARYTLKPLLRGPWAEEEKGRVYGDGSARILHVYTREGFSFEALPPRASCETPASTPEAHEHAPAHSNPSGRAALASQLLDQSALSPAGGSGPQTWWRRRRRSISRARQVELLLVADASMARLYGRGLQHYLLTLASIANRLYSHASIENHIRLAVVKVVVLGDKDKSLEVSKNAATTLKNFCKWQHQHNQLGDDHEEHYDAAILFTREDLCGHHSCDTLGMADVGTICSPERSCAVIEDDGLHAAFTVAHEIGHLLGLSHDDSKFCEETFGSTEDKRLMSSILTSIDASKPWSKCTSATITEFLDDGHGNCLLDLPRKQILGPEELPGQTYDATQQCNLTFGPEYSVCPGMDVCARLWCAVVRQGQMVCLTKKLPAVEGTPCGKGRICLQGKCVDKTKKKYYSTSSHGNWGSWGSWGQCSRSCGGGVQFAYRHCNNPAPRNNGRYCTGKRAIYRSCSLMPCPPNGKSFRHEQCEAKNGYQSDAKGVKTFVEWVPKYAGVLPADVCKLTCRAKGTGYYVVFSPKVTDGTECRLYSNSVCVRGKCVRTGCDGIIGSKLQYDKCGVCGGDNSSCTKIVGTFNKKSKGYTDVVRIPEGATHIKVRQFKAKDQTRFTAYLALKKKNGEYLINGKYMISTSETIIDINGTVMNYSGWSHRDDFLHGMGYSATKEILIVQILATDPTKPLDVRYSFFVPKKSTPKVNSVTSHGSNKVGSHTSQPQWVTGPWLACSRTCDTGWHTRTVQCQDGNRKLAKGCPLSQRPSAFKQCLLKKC

[4] = target: T3, A disintegrin and metalloproteinase with thrombospondin motifs 4 (Homo sapiens, UniProt O75173); assay: (§1) Inhibition of human recombinant ADAMTS4 by fluorimetric assay
T3 sequence (O75173 whole entry): T1 sequence (whole entry)

[5] = target: T1, A disintegrin and metalloproteinase with thrombospondin motifs 4 (Homo sapiens); assay: as §1
[6] = Inhibition of aggrecanase

SMILES	inhibition [1] [%]	inhibition [2] [%]	IC50 [3] [µM]	IC50 [4] [µM]	inhibition [5]	IC50 [6] [nM]
O=C(O)CC[C@H](NC(=O)c1ccc(-c2ccccc2)cc1)c1nnc(C2(c3ccccc3)CC2)o1	20	5	–	–	–	–
O=C(O)CC[C@H](NC(=O)c1ccc(-c2ccccc2)cc1)c1nnc(Cc2ccccc2)o1	26	17	–	–	–	–
CC(C)(Cc1nnc([C@H](CCC(=O)O)NC(=O)c2ccc(-c3ccccc3)cc2)o1)c1ccccc1	45	19	–	–	–	–
O=C(O)CC[C@H](NC(=O)c1ccc(-c2ccccc2)cc1)c1nnc(CCc2ccc(O)cc2)o1	51	22	–	–	–	–
Cc1ccc(CCc2nnc([C@H](CCC(=O)O)NC(=O)c3ccc(-c4ccccc4)cc3)o2)cc1	56	27	–	–	–	–
COc1ccc(Cc2nnc([C@H](CCC(=O)O)NC(=O)c3ccc(-c4ccccc4)cc3)o2)cc1	21	5	–	–	–	–
COc1ccc(CCc2nnc([C@H](CCC(=O)O)NC(=O)c3ccc(-c4ccccc4)cc3)o2)cc1	66	35	24.3	4.9	Dose-dependent effect	–
O=C(O)CC[C@H](NC(=O)c1ccc(-c2ccccc2)cc1)c1nnc(CCc2ccccc2)o1	59	30	57.3	9.7	Dose-dependent effect	–
O=C(O)CC[C@H](NC(=O)c1ccc(-c2ccncc2)cc1)c1nnc(CCc2ccccc2)o1	18	8	–	–	–	–
O=C(C[C@@H](Cc1ccc(-c2ccc3c(c2)OCO3)cc1)C(=O)N[C@@H]1c2ccccc2C[C@@H]1O)NO	–	–	–	–	–	1.5
O=C(O)CC[C@H](NC(=O)c1ccc(-c2cccnc2)cc1)c1nnc(CCc2ccccc2)o1	39	12	–	–	–	–
CC(C)(c1ccccc1)c1nnc([C@H](CCC(=O)O)NC(=O)c2ccc(-c3ccccc3)cc2)o1	5	-5	–	–	–	–
COc1cc(CCc2nnc([C@H](CCC(=O)O)NC(=O)c3ccc(-c4ccccc4)cc3)o2)cc(OC)c1OC	74	35	4.3	3.3	Dose-dependent effect	–
CC(C)(Cc1ccccc1)c1nnc([C@H](CCC(=O)O)NC(=O)c2ccc(-c3ccccc3)cc2)o1	47	23	–	–	–	–
COc1cc(Cc2nnc([C@H](CCC(=O)O)NC(=O)c3ccc(-c4ccccc4)cc3)o2)cc(OC)c1OC	86	47	0.8	1.2	Dose-dependent effect	–
